# Measured values reported in ChEMBL document CHEMBL5715954, “Silencing c-Myc translation as a therapeutic strategy through targeting PI3Kδ and CK1ε in hematological malignancies” (Blood, 2017).
# Tests used:
# Design in all cases: scale not given: the % may be the effect or the level left
# [1] = biological target: Dual specificity mitogen-activated protein kinase kinase 2 (Homo sapiens) (UniProt P36507); assay: Inhibition of human MEK2 assessed as enzyme activity at 1 uM using ERK2 (K52R) as substrate preincubated for 20 mins followed by [gamma-33P]-ATP addition and measured after 120 mins by radiometric Hot-SpotSM Kinase assay relative to control
# Sequence of Dual specificity mitogen-activated protein kinase kinase 2 (Homo sapiens) (P36507 whole entry): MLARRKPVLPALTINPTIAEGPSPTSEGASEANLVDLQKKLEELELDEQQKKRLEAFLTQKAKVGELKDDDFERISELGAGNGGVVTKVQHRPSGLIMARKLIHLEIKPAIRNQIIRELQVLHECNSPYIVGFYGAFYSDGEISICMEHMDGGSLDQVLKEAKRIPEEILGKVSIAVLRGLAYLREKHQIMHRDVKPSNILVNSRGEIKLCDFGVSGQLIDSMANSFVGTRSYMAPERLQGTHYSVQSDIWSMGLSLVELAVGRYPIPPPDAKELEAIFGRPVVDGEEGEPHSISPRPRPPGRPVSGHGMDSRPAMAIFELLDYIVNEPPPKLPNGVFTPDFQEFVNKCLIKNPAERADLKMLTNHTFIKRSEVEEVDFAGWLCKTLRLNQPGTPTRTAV
# [2] = biological target: T1, Tyrosine-protein kinase ZAP-70 (Homo sapiens) (UniProt P43403); assay: Inhibition of human ZAP70 assessed as enzyme activity at 1 uM using poly[Glu:Tyr] (4:1) as substrate preincubated for 20 mins followed by [gamma-33P]-ATP addition and measured after 120 mins by radiometric Hot-SpotSM Kinase assay relative to control
# T1 sequence (whole entry): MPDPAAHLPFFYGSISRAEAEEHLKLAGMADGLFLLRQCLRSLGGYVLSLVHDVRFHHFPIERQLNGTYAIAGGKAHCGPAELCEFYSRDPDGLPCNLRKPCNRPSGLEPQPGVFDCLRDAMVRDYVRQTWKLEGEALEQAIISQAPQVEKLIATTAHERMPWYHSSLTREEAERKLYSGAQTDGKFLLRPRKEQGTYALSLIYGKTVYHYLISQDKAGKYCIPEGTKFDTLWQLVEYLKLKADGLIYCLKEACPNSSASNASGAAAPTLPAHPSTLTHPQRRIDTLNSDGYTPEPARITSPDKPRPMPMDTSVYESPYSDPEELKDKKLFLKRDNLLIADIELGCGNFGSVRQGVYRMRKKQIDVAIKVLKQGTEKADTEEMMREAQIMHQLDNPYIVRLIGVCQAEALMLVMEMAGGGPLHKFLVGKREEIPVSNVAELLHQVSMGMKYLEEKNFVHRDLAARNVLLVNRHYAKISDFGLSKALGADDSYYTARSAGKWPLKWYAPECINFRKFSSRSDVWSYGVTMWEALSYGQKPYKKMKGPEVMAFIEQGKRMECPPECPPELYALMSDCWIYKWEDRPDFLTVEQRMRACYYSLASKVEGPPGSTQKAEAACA
# [3] = biological target: T2, Activin receptor type-1B (Homo sapiens) (UniProt P36896); assay: Inhibition of human ALK4 assessed as enzyme activity at 1 uM using casein as substrate preincubated for 20 mins followed by [gamma-33P]-ATP addition and measured after 120 mins by radiometric Hot-SpotSM Kinase assay relative to control
# T2 sequence (whole entry): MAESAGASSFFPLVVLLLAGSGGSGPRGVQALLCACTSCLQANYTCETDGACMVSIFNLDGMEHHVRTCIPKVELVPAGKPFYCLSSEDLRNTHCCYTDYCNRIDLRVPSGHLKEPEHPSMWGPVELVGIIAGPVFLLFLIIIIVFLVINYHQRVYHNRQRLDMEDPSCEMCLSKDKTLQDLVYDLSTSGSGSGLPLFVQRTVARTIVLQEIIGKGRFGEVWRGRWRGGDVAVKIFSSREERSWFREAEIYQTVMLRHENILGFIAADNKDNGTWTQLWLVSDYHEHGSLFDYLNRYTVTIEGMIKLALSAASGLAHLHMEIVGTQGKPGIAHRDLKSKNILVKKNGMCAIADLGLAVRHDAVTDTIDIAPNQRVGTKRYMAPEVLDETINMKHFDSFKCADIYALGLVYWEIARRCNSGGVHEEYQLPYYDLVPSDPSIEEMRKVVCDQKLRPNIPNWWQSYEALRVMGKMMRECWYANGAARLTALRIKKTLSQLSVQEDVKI
# [4] = biological target: T3, Ephrin type-B receptor 3 (Homo sapiens) (UniProt P54753); assay: Inhibition of human EPHB3 assessed as enzyme activity at 1 uM using poly[Glu:Tyr] (4:1) as substrate preincubated for 20 mins followed by [gamma-33P]-ATP addition and measured after 120 mins by radiometric Hot-SpotSM Kinase assay relative to control
# T3 sequence (whole entry): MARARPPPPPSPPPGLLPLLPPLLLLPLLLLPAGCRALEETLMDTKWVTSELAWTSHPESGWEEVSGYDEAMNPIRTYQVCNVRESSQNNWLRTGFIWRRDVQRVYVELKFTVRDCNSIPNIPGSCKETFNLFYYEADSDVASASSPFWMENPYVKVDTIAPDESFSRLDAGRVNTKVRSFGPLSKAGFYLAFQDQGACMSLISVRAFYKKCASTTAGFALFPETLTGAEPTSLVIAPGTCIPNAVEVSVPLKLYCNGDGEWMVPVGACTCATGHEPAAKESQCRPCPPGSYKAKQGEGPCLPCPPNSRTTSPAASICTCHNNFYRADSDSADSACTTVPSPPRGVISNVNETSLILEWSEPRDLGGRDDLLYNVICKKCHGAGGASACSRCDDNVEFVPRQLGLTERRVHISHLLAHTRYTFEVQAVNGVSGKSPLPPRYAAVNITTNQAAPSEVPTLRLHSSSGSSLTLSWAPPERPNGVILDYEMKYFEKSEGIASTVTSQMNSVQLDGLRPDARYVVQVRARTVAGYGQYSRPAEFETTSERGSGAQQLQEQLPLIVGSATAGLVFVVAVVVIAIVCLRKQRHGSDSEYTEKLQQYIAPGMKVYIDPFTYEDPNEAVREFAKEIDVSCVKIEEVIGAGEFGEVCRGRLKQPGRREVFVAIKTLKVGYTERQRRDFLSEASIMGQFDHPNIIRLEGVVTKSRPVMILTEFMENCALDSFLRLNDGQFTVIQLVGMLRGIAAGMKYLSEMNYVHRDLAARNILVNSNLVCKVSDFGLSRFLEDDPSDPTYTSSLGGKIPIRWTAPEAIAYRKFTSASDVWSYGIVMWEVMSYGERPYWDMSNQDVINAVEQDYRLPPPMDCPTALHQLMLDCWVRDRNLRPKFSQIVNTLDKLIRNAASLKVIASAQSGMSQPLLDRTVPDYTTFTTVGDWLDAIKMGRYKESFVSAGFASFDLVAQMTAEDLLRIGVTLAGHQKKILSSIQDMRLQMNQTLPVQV
# [5] = biological target: Receptor-interacting serine/threonine-protein kinase 2 (Homo sapiens) (UniProt O43353); assay: Inhibition of human RIPK2 assessed as enzyme activity at 1 uM using myelin basic protein as substrate preincubated for 20 mins followed by [gamma-33P]-ATP addition and measured after 120 mins by radiometric Hot-SpotSM Kinase assay relative to control
# Sequence of Receptor-interacting serine/threonine-protein kinase 2 (Homo sapiens) (O43353 whole entry): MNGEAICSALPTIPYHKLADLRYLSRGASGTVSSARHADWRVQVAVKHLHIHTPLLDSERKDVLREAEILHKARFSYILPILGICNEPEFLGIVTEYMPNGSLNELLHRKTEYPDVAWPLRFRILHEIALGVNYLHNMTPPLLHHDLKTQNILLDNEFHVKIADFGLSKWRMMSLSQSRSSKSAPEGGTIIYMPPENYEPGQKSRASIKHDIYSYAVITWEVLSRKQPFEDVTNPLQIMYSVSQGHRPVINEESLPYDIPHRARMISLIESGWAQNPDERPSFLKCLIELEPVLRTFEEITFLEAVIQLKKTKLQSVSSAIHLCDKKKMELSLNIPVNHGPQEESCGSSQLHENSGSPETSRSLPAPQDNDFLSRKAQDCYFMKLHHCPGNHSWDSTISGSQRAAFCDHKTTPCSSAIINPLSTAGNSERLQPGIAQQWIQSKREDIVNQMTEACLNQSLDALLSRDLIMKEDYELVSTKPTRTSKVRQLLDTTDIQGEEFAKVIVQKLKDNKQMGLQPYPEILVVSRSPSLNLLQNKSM
# [6] = biological target: Serine/threonine-protein kinase MRCK gamma (Homo sapiens) (UniProt Q6DT37); assay: Inhibition of human DMPK2 assessed as enzyme activity at 1 uM using KKRPQRRYSNVF as substrate preincubated for 20 mins followed by [gamma-33P]-ATP addition and measured after 120 mins by radiometric Hot-SpotSM Kinase assay relative to control
# Sequence of Serine/threonine-protein kinase MRCK gamma (Homo sapiens) (Q6DT37 whole entry): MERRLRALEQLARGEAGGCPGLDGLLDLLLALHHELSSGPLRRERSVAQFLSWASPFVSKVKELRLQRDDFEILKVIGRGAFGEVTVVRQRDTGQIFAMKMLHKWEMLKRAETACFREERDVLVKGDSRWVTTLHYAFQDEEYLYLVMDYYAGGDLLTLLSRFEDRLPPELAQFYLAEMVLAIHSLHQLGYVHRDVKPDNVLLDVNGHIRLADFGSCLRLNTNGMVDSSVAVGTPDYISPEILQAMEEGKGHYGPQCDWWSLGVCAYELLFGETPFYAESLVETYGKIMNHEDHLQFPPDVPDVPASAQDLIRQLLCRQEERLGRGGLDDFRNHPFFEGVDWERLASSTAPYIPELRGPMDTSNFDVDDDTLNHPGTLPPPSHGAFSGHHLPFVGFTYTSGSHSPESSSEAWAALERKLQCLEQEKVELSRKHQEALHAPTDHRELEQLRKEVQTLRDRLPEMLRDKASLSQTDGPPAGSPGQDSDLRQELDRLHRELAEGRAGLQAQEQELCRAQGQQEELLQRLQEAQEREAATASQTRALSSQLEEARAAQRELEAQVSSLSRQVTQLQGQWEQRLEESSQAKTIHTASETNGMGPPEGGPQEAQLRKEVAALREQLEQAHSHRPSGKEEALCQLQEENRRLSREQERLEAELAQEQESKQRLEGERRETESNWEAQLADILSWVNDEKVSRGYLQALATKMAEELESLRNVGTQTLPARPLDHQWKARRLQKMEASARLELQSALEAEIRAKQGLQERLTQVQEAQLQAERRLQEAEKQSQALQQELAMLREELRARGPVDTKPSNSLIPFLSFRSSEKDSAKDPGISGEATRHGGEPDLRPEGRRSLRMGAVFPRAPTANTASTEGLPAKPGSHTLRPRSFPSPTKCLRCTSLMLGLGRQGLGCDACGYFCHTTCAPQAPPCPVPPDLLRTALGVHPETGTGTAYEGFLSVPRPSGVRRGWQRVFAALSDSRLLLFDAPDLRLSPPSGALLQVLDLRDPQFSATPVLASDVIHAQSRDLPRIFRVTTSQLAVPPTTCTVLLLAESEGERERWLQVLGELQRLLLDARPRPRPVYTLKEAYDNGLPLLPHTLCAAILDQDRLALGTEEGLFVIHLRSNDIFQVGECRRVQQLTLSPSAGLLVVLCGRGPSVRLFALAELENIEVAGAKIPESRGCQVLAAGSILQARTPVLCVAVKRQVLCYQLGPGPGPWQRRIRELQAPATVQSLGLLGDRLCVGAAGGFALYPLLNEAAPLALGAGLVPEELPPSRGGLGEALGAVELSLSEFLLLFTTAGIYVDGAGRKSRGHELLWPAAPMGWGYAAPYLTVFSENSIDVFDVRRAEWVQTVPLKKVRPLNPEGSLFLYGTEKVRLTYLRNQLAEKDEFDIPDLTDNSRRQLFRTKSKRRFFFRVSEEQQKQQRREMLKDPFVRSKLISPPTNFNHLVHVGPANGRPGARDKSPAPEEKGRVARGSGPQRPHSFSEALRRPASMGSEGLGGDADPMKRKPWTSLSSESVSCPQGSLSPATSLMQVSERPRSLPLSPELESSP
# [7] = biological target: Ribosomal protein S6 kinase alpha-4 (Homo sapiens) (UniProt O75676); assay: Inhibition of human MSK2 assessed as enzyme activity at 1 uM using GRPRTSSFAEG as substrate preincubated for 20 mins followed by [gamma-33P]-ATP addition and measured after 120 mins by radiometric Hot-SpotSM Kinase assay relative to control
# Sequence of Ribosomal protein S6 kinase alpha-4 (Homo sapiens) (O75676 whole entry, looked up): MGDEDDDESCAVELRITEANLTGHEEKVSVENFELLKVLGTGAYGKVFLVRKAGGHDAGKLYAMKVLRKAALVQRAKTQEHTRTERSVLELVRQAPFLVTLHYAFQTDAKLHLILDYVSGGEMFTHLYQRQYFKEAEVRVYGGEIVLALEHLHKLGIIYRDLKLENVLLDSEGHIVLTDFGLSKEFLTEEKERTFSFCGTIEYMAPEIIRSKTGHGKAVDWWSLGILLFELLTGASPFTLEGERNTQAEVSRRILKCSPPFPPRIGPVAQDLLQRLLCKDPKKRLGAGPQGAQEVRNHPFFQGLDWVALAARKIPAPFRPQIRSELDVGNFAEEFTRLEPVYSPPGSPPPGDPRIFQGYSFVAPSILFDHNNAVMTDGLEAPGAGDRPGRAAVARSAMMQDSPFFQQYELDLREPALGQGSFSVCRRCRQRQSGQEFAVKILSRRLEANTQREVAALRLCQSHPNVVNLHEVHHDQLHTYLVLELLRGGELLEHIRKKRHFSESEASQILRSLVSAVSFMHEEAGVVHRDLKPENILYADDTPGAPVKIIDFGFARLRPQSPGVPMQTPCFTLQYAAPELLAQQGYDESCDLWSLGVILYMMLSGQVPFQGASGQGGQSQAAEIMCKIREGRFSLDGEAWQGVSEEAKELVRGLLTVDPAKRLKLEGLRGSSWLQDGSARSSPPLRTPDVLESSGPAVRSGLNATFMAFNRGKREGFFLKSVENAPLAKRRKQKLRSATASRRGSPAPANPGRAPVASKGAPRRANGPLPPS
Structure (SMILES),Activity [1],Activity [2],Activity [3],Activity [4],Activity [5],Activity [6],Activity [7]
C[C@H](Nc1ncnc2nc[nH]c12)c1cc2cccc(Cl)c2c(=O)n1-c1ccccc1,90%,99.7%,101%,89.7%,92.2%,102%,98.8%
CC[C@H](Nc1ncnc2[nH]cnc12)c1nc2cccc(F)c2c(=O)n1-c1ccccc1,91.5%,100%,101%,98.3%,96.5%,97.4%,98.1%
CC(C)Oc1ccc(-c2nn([C@@H](C)c3oc4ccc(F)cc4c(=O)c3-c3cccc(F)c3)c3ncnc(N)c23)cc1F [UMBRALISIB],90.4%,99.4%,106%,97.4%,94.2%,104%,94.2%
